Consider 3 compounds from publication PMC9856672, “SGC-CAMKK2-1: A Chemical Probe for CAMKK2” (Cells, 2023).

Entries after “also recorded” stand apart in the source; their conditions may differ.

For test [1], the target named is CAMKK2 (Homo sapiens, UniProt Q96RR4). The test is described as follows: CAMKK2 enzyme assay (radiolabeled phosphate transfer from [γ-32P]-ATP to CaMKKtide). Also on record: purified recombinant CAMKK2 (100 pM) was incubated in assay buffer. To be noted: 200 μM ATP, 100 pM CAMKK2. In kind it is biochemical. How it is done: CAMKK2 activity was determined by measuring the transfer of radiolabeled phosphate from [γ-^32P]-ATP to a synthetic peptide substrate (CaMKKtide) as previously described. Briefly, purified recombinant CAMKK2 (100 pM) was incubated in assay buffer (50 mM HEPES [pH 7.4], 1 mM DTT, 0.02% [v/v] Brij-35) containing 200 μM CaMKKtide (Genscript), 100 μM CaCl2, 1 μM CaM (Sigma-Aldrich, Castle Hill, NSW, Australia), 200 μM [γ-^32P]-ATP (Perkin Elmer, Boston, MA, USA), 5 mM MgCl2 (Sigma-Aldrich, Castle Hill, NSW, Australia), and various concentrations of inhibitors (0–1 μM) in a standard 30 μL assay for 10 min at 30 °C. Reactions were terminated by spotting 15 μL onto P81 phosphocellulose paper (GE Lifesciences, Paramatta, NSW, Australia) and washing extensively in 1% phosphoric acid (Sigma-Aldrich, Castle Hill, NSW, Australia). Radioactivity was quantified by liquid scintillation counting.
A series of furo [2,3-b]pyridines were generated with modifications off the core at the 3- and 5-positions. They were profiled in the CAMKK2 enzyme assay we have described and utilized previously. Briefly, the enzyme assay measures the ability of the compound to inhibit the transfer of a radiolabeled phosphate from ATP to a CAMKK2-specific peptide. […] The S10 (1 µM), a calculated score that is reflective of broad kinome selectivity, is 0.002 for the probe molecule.

The test system of test [2] is p-AMPK(Thr172) in C4-2 cells. Put plainly: Western blot of p-AMPK(Thr172) in C4-2 prostate cancer cells. The test is classed as cell-based. To be noted: 24 h treatment; for IC50: C4-2, 24 h, three individual experiments, read-out: IC50 for decrease of p-AMPK(Thr172) normalized to total AMPK. How it is done:
C4-2 cells were plated in 6-well plates in IMEM medium containing 0.5% FBS. After 72 h, the cells were then treated with the compounds for 24 h before the media was aspirated and cells were washed twice in ice-cold PBS. Cells were lysed using RIPA buffer containing phosphatase and protease inhibitor cocktail while rotating for 30 min at 4 °C. In each lane, 30 μg/well of protein lysate was loaded into a 10% SDS-PAGE gel and run for 1 h and 30 min. Gels were then transferred overnight in a TRIS-glycine/methanol transfer buffer onto a PVDF membrane at 4 °C. Membranes were blocked, incubated with primary overnight at 4 °C, washed, incubated with secondary at room temperature for 1 h, washed, and then developed on an Azure Biosystems C-600 imager. Densitometry was performed using ImageJ. Total-AMPK was normalized to GAPDH and then p-AMPK was normalized to normalized total-AMPK. Normalized p-AMPK was used to calculate IC50 in GraphPad Prism 9.5.0. Primary antibodies used were from Cell Signaling (Danvers, MA, USA; Phospho-AMPKα (Thr172) (40H9) Rabbit mAb: Cat#: 2535; AMPKα (D5A2) Rabbit mAb Cat#: 5831), BD Bioscience (Franklin Lakes, NJ, USA; CAMKK2 mouse mAb Cat# 610544), and Sigma (St. Louis, MO, USA; GAPDH rabbit pAb: Cat# G9545). Secondary antibody (Goat Anti-Rabbit IgG (H + L)-HRP Conjugate; Cat#:1706515) was from Bio-Rad Laboratories (Hercules, CA, USA).
In this experiment, IC50 was calculated via quantifying changes in p-AMPK(Thr172) normalized to total AMPK levels.

The test system of test [3] is panel of more than 400 wild-type human kinases. Put plainly: DiscoverX KINOMEscan broad kinome profiling (panel of more than 400 wild-type human kinases), selectivity score S10. To be noted: KINOMEscan at 1 μM; number of wild type kinases with % control ≤10 / number tested. The test is classed as binding. How it is done:
Compounds were screened at Eurofins DiscoverX (Freemont, CA) at a single concentration of 1 μM using binding assays as described previously. Briefly, extracts containing DNA-tagged kinases are incubated with immobilized kinase inhibitors and the test compound (at 1 μM). Test compounds that displace the immobilized broad-spectrum inhibitors are detected by quantitative PCR. The results are expressed as the percentage of kinase bound to the bead compared to DMSO control (%control). […] The formula to calculate S10 depicted in Equation (1). (1) S10(1 μM)=number of wild type kinase with % control ≤10/number of wild type kinase tested
A series of furo [2,3-b]pyridines were generated with modifications off the core at the 3- and 5-positions. They were profiled in the CAMKK2 enzyme assay we have described and utilized previously. Briefly, the enzyme assay measures the ability of the compound to inhibit the transfer of a radiolabeled phosphate from ATP to a CAMKK2-specific peptide. […] 5 was then profiled in the DiscoverX KINOMEscan™ assay panel to provide a view of the overall kinome-wide selectivity (Supplemental S2). This assay platform evaluates compound affinity for a panel of more than 400 wild-type human kinases. The S10 (1 µM), a calculated score that is reflective of broad kinome selectivity, is 0.002 for the probe molecule.

Test [4] has as its system p-AMPK(Thr172) in MDA-MB-231 cells. The test is described as follows: Immunoblot of p-AMPK(Thr172) in MDA-MB-231 breast cancer cells. The test is classed as cell-based. Particulars: 24 h. As to the method:
The cells were then washed three times with 2 mL of ice-cold PBS and lysed with 0.15 mL of phospho-RIPA lysis buffer (Tris-Cl pH 7.5, 50 mM; NaCl, 150 mM; NP-40, 1%; sodium deoxycholate, 0.5%; SDS, 0.05%; EDTA, 5 mM; sodium fluoride, 50 mM; sodium pyrophosphate, 15 mM; ß-glycerophosphate, 10 mM; sodium orthovanadate, 1 mM) with protease inhibitor cocktail (Millipore-Sigma, P-8340). Equal amounts of protein per sample/lane were denatured and resolved by SDS-PAGE. Proteins were transferred to Odyssey Nitrocellulose Membranes (LI-COR Biosciences, cat no: 926-31092), and quantitative immunoblotting was performed using the Odyssey infrared immunoblotting detection system (LI-COR Biosciences, Lincoln, NE, USA). Images were captured using the LI-COR Odyssey Classic scanner and processed using LI-COR Image Studio software, version 4.0. Quantification of the bands was done using Image Studio software tools whereby each individual immunoblot band was highlighted to obtain the signal intensity. The signal intensity of the pAMPK band was then divided by that of total AMPK and the data were normalized to the vehicle-only controls for each experiment. Primary antibodies used were anti-phospho AMPKα (Thr172) (Cell Signaling, cat no: 2535, dilution 1:1000); anti-AMPKα (Cell Signaling, cat.no: 2532, dil 1:500), and anti β-actin (Cat no: 3700, Cell signaling, dil 1:10,000). […]
Background: In western blotting, separated proteins are transferred to a membrane and probed.

Test [5] concerns the target T1, KIT(V559D,T670I) (Homo sapiens, UniProt P10721, T670I/V559D).
T1 construct: purchased Eurofins DiscoverX KINOMEscan
Put plainly: KINOMEscan 1 μM, KIT(V559D,T670I). The test is classed as binding. Particulars: 1000 nM; Entrez KIT; read-out: Percent Control. An excerpt: Supplement cells-12-00287-s001.zip/File S2. KinomeScan data for the CAMKK2 probe and negative control.xlsx, sheet "SGC-CAMKK2-1" | column: Percent Control

T1 sequence (P10721 26-976 V559D/T670I): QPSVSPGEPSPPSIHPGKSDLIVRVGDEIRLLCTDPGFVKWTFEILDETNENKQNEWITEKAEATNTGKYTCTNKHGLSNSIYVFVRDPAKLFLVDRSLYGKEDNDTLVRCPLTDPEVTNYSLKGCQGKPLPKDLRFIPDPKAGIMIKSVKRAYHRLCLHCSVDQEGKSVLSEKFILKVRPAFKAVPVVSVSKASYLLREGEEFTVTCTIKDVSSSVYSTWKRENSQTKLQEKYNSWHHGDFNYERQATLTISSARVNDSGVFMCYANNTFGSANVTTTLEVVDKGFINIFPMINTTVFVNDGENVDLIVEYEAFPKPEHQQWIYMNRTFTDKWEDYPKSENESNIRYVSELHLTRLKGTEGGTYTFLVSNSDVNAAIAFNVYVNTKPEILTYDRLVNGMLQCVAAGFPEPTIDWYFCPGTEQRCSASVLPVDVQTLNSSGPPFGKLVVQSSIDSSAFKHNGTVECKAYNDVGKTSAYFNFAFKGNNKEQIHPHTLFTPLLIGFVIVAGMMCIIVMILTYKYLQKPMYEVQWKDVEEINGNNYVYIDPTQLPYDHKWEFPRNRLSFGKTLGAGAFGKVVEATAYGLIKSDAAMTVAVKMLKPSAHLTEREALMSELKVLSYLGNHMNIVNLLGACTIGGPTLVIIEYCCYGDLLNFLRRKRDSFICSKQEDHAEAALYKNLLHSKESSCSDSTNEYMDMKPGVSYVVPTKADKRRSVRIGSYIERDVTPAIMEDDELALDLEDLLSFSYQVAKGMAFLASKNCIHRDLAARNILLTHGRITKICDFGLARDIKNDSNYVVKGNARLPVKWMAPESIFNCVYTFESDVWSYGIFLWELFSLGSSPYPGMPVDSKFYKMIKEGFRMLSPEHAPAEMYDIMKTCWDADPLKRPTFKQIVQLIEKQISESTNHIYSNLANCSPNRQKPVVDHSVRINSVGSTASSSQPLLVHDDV

As a reminder, the IC50 is the concentration needed to halve the response being measured. For the compound `Cc1cccc(-c2cnc3occ(-c4ccc(C(=O)O)c(C5CCCC5)c4)c3c2)c1` [Compound 5], the IC50 in test [1] was found to be 0.03 µM; in test [2], 1.6 µM. Further, in test [3], the “S10 (1 μM)” value is on record as 0.002. In addition, in test [4] (SGC-CAMKK2-1), the “blocking of AMPK phosphorylation (in words)” value was “more effective than STO-609; also recorded: higher efficacy than STO-609”.

For the compound `O=C(O)c1ccc(-c2coc3ncc(-c4ccccc4)cc23)cc1Cl` [Compound 7], in test [1] (n = 1), the IC50 came out at 27 µM. Further, in test [2], the “activity on p-AMPK(Thr172) levels (in words)” value was “did not have any measurable activity” and the IC50 is not below 10 µM. Besides, in test [3], the “S10 (1 μM)” value turned out to be 0.005. Moreover, the “blocking of AMPK phosphorylation (in words)” value in test [4] (negative control at 10 μM) is recorded as “no effect”.

In the case of `Cc1cccc(-c2cnc3occ(-c4ccc(C(=O)O)c(C5CCCC5)c4)c3c2)c1` [SGC-CAMKK2-1 (YL-36)], in test [5], the remaining binding at 1 µM stood at 100%.
